From US9783536B2, “Nitrogen-containing heterocyclic compound or salt thereof” (FUJIFILM Corporation, priority 2013, dated 2017)
Where two headings read alike, the source gives them in different places.

Columns and labels:
Format in all cases: biochemical
[1] = target: T1, GST fusion human ERK2 protein (Homo sapiens, UniProt P28482); experiment: ERK2 enzyme assay (1); conditions: read-out: ERK2 enzyme inhibitory activity (1)
T1 construct: purchased Carna Biosciences, Inc; host or cells: E. coli expression system
How it was run: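 IC50 derived from the proportion of phosphorylated 5-FAM peptide, separated from unphosphorylated peptide by microfluidic mobility shift. Compound was first preincubated 15 min at room temperature with 2.5 nmol/L kinase at pH 7.5, then 43.1 μmol/L ATP plus 4.25 μmol/L substrate reacted 120 min at 25 °C.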

human PI3Kα protein = target: T2, human PI3Kα protein (Homo sapiens, UniProt P42336); experiment: PI3Kα enzyme assay (ADP-Glo); conditions: read-out: PI3Kα enzyme inhibitory activity
T2 construct: purchased Carna Biosciences, Inc; host or cells: baculovirus expression system
How it was run: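 Biotinylated human PI3Kα (baculovirus-expressed, 4.5 nmol/L) pre-incubated 15 min with compound in Tris-HCl pH 7.5, MgCl2, BSA; reaction 60 min at 25° C with 50 μmol/L PIP2 and 100 μmol/L ATP final. ADP quantified by ADP-Glo luminescence; IC50 calculated.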

[2] = target: T1, GST fusion human ERK2 protein; experiment: ERK2 enzyme assay (2); conditions: read-out: ERK2 enzyme inhibitory activity (2)
How it was run: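 IC50 values come from mobility-shift measurement of phosphorylated versus unphosphorylated 5-FAM peptide substrate after EDTA quench. Beforehand, compound and 1.25 nmol/L E. coli-expressed GST–human ERK2 stood 15 min at room temperature (pH 7.5), then 1 mmol/L ATP and 4.25 μmol/L substrate (final) were added for 120 min at 25 °C.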

[3] = 2.5 nmol/L ERK2, ATP 43.1 μmol/L
[4] = 4.5 nmol/L PI3Kα, PIP2 50 μmol/L, ATP 100 μmol/L

T1 sequence (P28482 whole entry, the tested form may be a part): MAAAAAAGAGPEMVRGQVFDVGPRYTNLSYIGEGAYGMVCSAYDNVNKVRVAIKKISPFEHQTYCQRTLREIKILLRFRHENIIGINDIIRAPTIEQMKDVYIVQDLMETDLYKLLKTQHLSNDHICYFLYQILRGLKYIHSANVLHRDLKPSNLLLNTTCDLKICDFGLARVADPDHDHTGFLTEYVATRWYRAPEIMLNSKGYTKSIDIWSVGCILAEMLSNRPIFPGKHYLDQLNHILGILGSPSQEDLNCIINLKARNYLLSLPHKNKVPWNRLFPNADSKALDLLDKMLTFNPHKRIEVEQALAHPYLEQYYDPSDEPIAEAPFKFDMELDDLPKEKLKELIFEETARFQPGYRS
T2 sequence (P42336 whole entry): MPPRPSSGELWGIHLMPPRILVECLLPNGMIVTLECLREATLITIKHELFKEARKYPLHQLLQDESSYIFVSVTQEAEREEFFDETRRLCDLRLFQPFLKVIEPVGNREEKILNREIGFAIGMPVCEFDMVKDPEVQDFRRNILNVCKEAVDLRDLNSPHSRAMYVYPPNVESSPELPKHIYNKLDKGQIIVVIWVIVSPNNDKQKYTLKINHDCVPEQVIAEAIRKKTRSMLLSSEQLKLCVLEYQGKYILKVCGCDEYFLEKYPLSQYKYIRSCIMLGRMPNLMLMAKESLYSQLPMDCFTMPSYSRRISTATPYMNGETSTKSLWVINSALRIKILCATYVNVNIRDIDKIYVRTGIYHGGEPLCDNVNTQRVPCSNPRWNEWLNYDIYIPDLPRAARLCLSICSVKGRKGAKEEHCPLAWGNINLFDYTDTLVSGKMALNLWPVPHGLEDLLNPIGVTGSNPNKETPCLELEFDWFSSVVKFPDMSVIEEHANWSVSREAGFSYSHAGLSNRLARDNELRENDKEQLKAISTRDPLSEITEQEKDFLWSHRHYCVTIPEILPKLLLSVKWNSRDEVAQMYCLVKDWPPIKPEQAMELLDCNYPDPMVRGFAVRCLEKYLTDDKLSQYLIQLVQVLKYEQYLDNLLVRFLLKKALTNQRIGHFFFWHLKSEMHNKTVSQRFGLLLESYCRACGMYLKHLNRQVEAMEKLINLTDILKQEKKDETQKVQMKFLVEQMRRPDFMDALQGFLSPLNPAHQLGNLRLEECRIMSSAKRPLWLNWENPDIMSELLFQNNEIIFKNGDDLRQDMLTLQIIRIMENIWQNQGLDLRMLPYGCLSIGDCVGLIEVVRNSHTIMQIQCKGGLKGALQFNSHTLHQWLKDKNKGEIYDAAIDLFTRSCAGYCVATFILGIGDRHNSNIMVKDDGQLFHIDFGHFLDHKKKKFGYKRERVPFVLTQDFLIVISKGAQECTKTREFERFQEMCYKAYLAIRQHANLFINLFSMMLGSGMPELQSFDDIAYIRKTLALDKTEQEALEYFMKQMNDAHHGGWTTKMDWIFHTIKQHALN
T2 sequence (P27986 whole entry partner): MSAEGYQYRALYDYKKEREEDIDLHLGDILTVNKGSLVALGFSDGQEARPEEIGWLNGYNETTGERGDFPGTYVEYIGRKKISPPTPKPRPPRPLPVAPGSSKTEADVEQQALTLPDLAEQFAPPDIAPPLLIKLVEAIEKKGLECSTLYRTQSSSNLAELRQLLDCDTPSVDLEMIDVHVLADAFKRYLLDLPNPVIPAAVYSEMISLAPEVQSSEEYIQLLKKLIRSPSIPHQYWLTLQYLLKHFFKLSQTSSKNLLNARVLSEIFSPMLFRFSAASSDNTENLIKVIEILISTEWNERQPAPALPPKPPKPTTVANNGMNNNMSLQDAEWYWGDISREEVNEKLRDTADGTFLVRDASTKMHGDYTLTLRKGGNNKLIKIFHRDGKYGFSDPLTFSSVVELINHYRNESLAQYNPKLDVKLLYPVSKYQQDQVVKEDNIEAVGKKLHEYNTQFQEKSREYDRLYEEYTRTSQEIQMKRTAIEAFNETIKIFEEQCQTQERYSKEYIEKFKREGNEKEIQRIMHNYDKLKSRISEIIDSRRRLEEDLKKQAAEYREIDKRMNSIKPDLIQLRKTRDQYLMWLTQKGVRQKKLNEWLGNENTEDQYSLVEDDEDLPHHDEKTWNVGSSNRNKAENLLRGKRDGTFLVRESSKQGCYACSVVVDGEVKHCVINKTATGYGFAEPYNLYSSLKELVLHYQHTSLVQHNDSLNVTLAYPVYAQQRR

| IC50 [1, 3] | IC50 (human PI3Kα protein; [4]) | IC50 ([2]; 1.25 nmol/L ERK2, ATP 1 mmol/L) | IC50 ([1]; ERK2 enzyme assay (1)) | IC50 (human PI3Kα protein) | IC50 ([2]; ERK2 enzyme assay (2)) | SMILES |
| --- | --- | --- | --- | --- | --- | --- |
| < 1000 nM | 1000 to 10000 nM | < 1000 nM |  |  |  | Cn1cc(-c2cnc3ccc(Nc4nnc(N5CCCC5)s4)nc3c2)cn1 [Example 0173, N-(7-(1-methyl-1H-pyrazol-4-yl)-1,5-naphthyridin-2-yl)-5-(pyrrolidin-1-yl)-1,3,4-thiadiazole-2-amine] |
| < 1000 nM | < 1000 nM | < 1000 nM |  |  |  | COc1nn(C)cc1-c1cnc2ccc(Nc3nnc(C(C)C)s3)nc2c1 [Example 0131] |
|  |  |  | < 1000 nM | < 1000 nM | < 1000 nM | CC(C)c1cnnc(Nc2ccc3ncc(-c4cnn(C5CCOCC5)c4)cc3n2)c1 [Example 0475, N-(5-isopropylpyridazin-3-yl)-7-(1-(tetrahydro-2H-pyran-4-yl)-1H-pyrazol-4-yl)-1,5-naphthyridine-2-amine] |
|  |  |  | < 1000 nM | < 1000 nM | < 1000 nM | CC(C)Cc1nnc(Nc2ccc3ncc(-c4cnn(CCCN5CCCC5)c4)cc3n2)s1 [Example 0265] |
| < 1000 nM | < 1000 nM | < 1000 nM |  |  |  | COCc1nn(C)cc1-c1cnc2ccc(Nc3nnc(C(C)C)s3)nc2c1 [Example 0142] |
|  |  |  | < 1000 nM | < 1000 nM | < 1000 nM | c1nc2ccc(Nc3cc(N4CCCC4)cnn3)nc2cc1-c1cnn(CCCN2CCCC2)c1 [Example 0402, 7-(1-(3-(Pyrrolidin-1-yl)propyl)-1H-pyrazol-4-yl)-N-(5-(pyrrolidin-1-yl)pyridazin-3-yl)-1,5-naphthyridine-2-amine] |
| < 1000 nM | 10000 to 50000 nM | 1000 to 10000 nM |  |  |  | Cc1ccc(Nc2ccc3ncc(-c4cnn(C)c4)cc3n2)nn1 [Example 0151] |
| < 1000 nM | < 1000 nM | < 1000 nM |  |  |  | CC(C)c1nnc(Nc2ccc3ncc(-c4cn(C)nc4C4CC4)cc3n2)s1 [Example 0133] |
|  |  |  | < 1000 nM | < 1000 nM | < 1000 nM | c1nc2ccc(Nc3nnc(C4CCCC4)s3)nc2cc1-c1cnn(CCCN2CCCCC2)c1 [Example 0344, 5-cyclopentyl-N-(7-(1-(3-(piperidin-1-yl)propyl)-1H-pyrazol-4-yl)-1,5-naphthyridin-2-yl)-1,3,4-thiadiazole-2-amine] |
|  |  |  | < 1000 nM | < 1000 nM | < 1000 nM | c1nc2ccc(Nc3nnc(C4CCCC4)s3)nc2cc1-c1cnn(CCCN2CCC2)c1 [Example 0345] |
| < 1000 nM | < 1000 nM | < 1000 nM |  |  |  | CCCc1nn(C)cc1-c1cnc2ccc(Nc3nnc(C4CCCC4)s3)nc2c1 [Example 0112] |
|  |  |  | < 1000 nM | < 1000 nM | < 1000 nM | CCOc1c(-c2cnn(C)c2)cnc2ccc(Nc3nnc(C4CCCC4)s3)nc12 [Example 0358, 5-Cyclopentyl-N-(8-ethoxy-7-(1-methyl-1H-pyrazol-4-yl)-1,5-naphthyridin-2-yl)-1,3,4-thiadiazole-2-amine] |
|  |  |  | < 1000 nM | < 1000 nM | < 1000 nM | CC(C)(C)c1cnnc(Nc2ccc3ncc(-c4cnn(CCCN5CCCC5)c4)cc3n2)c1 [Example 0290] |
| < 1000 nM | < 1000 nM | < 1000 nM |  |  |  | CC(C)c1nnc(Nc2ccc3ncc(-c4cnn(C)c4)cc3n2)s1 [Example 0167, 5-Isopropyl-N-(7-(1-methyl-1H-pyrazol-4-yl)-1,5-naphthyridin-2-yl)-1,3,4-thiadiazole-2-amine] |
|  |  |  | < 1000 nM | < 1000 nM | < 1000 nM | FC1(F)CCN(CCCn2cc(-c3cnc4ccc(Nc5nnc(C6CCCC6)s5)nc4c3)cn2)CC1 [Example 0353] |
| < 1000 nM | 1000 to 10000 nM | 10000 to 50000 nM |  |  |  | c1cc(OC2CCOCC2)ncc1Nc1cnc2ccc(Nc3nnc(C4CCCC4)s3)nc2c1 [Example 0093] |

| IC50 [1, 3] | IC50 (human PI3Kα protein; [4]) | IC50 ([2]; 1.25 nmol/L ERK2, ATP 1 mmol/L) | IC50 ([1]; ERK2 enzyme assay (1)) | IC50 (human PI3Kα protein) | IC50 ([2]; ERK2 enzyme assay (2)) | SMILES |
| --- | --- | --- | --- | --- | --- | --- |
|  |  |  | < 1000 nM | 1000 to 10000 nM | < 1000 nM | Cn1cc(-c2cnc3ccc(Nc4nnc(C5CCCN5)s4)nc3c2)cn1 (stereo not drawn) [Example 0246, N-(7-(1-methyl-1H-pyrazol-4-yl)-1,5-naphthyridin-2-yl)-5-(pyrrolidin-2-yl)-1,3,4-thiadiazole-2-amine] |
|  |  |  | < 1000 nM | < 1000 nM | < 1000 nM | CCC(C)c1cnnc(Nc2ccc3ncc(-c4cnn(CCCN5CCCC5)c4)cc3n2)c1 (stereo not drawn) [Example 0294] |
|  |  |  | < 1000 nM | 1000 to 10000 nM | < 1000 nM | CC(C)c1cnnc(Nc2ccc3ncc(-c4cnn(CCCc5ccccc5)c4)cc3n2)c1 [Example 0372] |
|  |  |  | < 1000 nM | < 1000 nM | < 1000 nM | CC(C)c1cnnc(Nc2ccc3ncc(-c4cnn(C5CCN(C)CC5)c4)cc3n2)c1 [Example 0370, N-(5-isopropylpyridazin-3-yl)-7-(1-(1-methylpiperidin-4-yl)-1H-pyrazol-4-yl)-1,5-naphthyridine-2-amine] |
| < 1000 nM | < 1000 nM | < 1000 nM |  |  |  | c1nc2ccc(Nc3nnc(C4CCCC4)s3)nc2cc1-c1cnn(CCCN2CCOCC2)c1 [Example 0117] |
|  |  |  | < 1000 nM | 1000 to 10000 nM | < 1000 nM | Cc1n[nH]c(C)c1-c1cnc2ccc(Nc3nnc(C4CCCC4)s3)nc2c1 [Example 0215] |
| < 1000 nM | < 1000 nM | < 1000 nM |  |  |  | c1ncc(N2CCOCC2)cc1Nc1cnc2ccc(Nc3nnc(C4CCCC4)s3)nc2c1 [Example 0090] |
| < 1000 nM | < 1000 nM | < 1000 nM |  |  |  | CC(C)c1cnnc(Nc2ccc3ncc(-c4cnn(C)c4)nc3n2)c1 [Example 0014, N-(5-isopropylpyridazin-3-yl)-3-(1-methyl-1H-pyrazol-4-yl)pyrido[2,3-b]pyrazine-6-amine] |
|  |  |  | < 1000 nM | < 1000 nM | < 1000 nM | Cc1c(-c2cnc3ccc(Nc4nnc(C(C)C)s4)nc3c2)cnn1CCCN1CCCC1 [Example 0360, 5-Isopropyl-N-(7-(5-methyl-1-(3-(pyrrolidin-1-yl)propyl)-1H-pyrazol-4-yl)-1,5-naphthyridin-2-yl)-1,3,4-thiadiazole-2-amine] |
| 10000 to 50000 nM | < 1000 nM | 10000 to 50000 nM |  |  |  | c1ccc2ncc(Nc3cnc4ccc(Nc5nnc(C6CCCC6)s5)nc4c3)cc2c1 [Example 0094] |
| < 1000 nM | < 1000 nM | < 1000 nM |  |  |  | c1cc(CN2CCOCC2)ncc1Nc1cnc2ccc(Nc3nnc(C4CCCC4)s3)nc2c1 [Example 0085] |
|  |  |  | < 1000 nM | 1000 to 10000 nM | < 1000 nM | CC(=O)N1CCC(c2nnc(Nc3ccc4ncc(-c5cnn(C)c5)cc4n3)s2)C1 (stereo not drawn) [Example 0253, 1-(3-(5-((7-(1-Methyl-1H-pyrazol-4-yl)-1,5-naphthyridin-2-yl)amino)-1,3,4-thiadiazol-2-yl)pyrrolidin-1-yl)ethanone] |
|  |  |  | < 1000 nM | < 1000 nM | 1000 to 10000 nM | CC(C)Oc1c(-c2cnn(C)c2)cnc2ccc(Nc3nnc(C4CCCC4)s3)nc12 [Example 0359, 5-cyclopentyl-N-(8-isopropyloxy-7-(1-methyl-1H-pyrazol-4-yl)-1,5-naphthyridin-2-yl)-1,3,4-thiadiazole-2-amine] |
|  |  |  | < 1000 nM | 1000 to 10000 nM | < 1000 nM | CNCc1nn(C)cc1-c1cnc2ccc(Nc3nnc(C(C)C)s3)nc2c1 [Example 0383, 5-isopropyl-N-(7-(1-methyl-3-((methylamino)methyl)-1H-pyrazol-4-yl)-1,5-naphthyridin-2-yl)-1,3,4-thiadiazole-2-amine] |
|  |  |  | < 1000 nM | < 1000 nM | < 1000 nM | CCCc1nnc(Nc2ccc3ncc(-c4cnn(CCCN5CCCC5)c4)cc3n2)s1 [Example 0364] |
